# In ChEMBL document CHEMBL3301562, “MMV Box screening against Plasmodium falciparum protein kinases and aminoacyl tRNA synthetases”:
# How the values were obtained:
# Assay type in all cases: functional
# [1] = biological target: T1, Putative uncharacterized protein pk7 (Plasmodium falciparum, UniProt O96214); assay: Final concentrations were 1 uM ATP, 2 mM DTT, 20 mM MgCl2, 2 mM MnCl2, 0.01% BSA, and 6 ug/ml PK7, in a buffer of 20 mM Tris-HCl (pH 7.5). The enzyme itself was the only substrate present (since autophosphorylation occurs); 100 uM 1NA-PP1 was used as a control inhibitor. Incubation time was 3 hours.
# T1 sequence (O96214 whole entry): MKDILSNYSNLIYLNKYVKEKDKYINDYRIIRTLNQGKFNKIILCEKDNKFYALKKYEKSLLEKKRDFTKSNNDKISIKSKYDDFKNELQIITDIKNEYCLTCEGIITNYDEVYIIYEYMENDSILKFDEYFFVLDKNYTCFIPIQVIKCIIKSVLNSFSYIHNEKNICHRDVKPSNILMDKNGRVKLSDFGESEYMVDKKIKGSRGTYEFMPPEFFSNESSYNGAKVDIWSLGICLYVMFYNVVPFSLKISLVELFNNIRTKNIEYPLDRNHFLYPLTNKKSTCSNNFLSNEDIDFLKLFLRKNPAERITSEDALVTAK
# [2] = biological target: T2, Calcium-dependent protein kinase 4 (Plasmodium falciparum (isolate 3D7), UniProt Q8IBS5); assay: MMV: CDPK4 Protein kinase inhibition assay using recombinant PfCDPK4, syntide2 peptide substrate, ATP and KinaseGlo to measure % inhibition at 1 uM MMV box compound.
# T2 sequence (Q8IBS5 whole entry): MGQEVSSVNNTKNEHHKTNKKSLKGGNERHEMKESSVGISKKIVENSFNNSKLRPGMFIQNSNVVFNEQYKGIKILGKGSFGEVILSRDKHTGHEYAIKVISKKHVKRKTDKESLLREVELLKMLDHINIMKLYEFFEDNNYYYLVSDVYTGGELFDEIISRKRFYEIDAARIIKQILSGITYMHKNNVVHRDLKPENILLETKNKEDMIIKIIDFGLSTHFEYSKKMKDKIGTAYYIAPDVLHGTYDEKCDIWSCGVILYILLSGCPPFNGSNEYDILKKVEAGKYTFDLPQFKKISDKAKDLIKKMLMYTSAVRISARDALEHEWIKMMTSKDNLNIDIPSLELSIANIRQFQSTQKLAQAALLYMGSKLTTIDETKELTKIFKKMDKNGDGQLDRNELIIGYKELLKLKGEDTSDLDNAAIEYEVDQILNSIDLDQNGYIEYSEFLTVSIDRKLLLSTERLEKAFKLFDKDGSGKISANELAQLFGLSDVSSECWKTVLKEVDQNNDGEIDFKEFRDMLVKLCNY
# [3] = biological target: Calcium-dependent protein kinase 1 (Plasmodium falciparum, UniProt P62344); assay: MMV: CDPK1 Protein kinase inhibition assay using recombinant PfCDPK1, syntide 2 peptide substrate, ATP and KinaseGlo to measure % inhibition at 1 uM MMV box compound.
# Lysine--tRNA ligase = Lysine--tRNA ligase (Plasmodium falciparum (isolate 3D7), UniProt Q8IDJ8); assay: MMV: KRS recombinant Plasmodium falciparum Lysyl-tRNA-synthetase, assay with yeast tRNA, ATP, and lysine and 3 uM MMV malaria box compound, assay read out with kinase glo as % inhibition.
# [4] = biological target: T3, Mitogen-activated protein kinase (Plasmodium falciparum, UniProt Q25917); assay: Final concentrations were 1 uM ATP, 0.5 mM DTT, 1 mM MgCl2, 0.5 mg/mL BSA, and 10 ug/ml MAP2 in a buffer of 50 mM HEPES (pH 7.0). 0.5 mg/mL histone III-S served as the substrate (13); 100 uM AMP-PNP, an ATP analog, was used as a control inhibitor. Incubation time was 4 hours.
# T3 sequence (Q25917 whole entry): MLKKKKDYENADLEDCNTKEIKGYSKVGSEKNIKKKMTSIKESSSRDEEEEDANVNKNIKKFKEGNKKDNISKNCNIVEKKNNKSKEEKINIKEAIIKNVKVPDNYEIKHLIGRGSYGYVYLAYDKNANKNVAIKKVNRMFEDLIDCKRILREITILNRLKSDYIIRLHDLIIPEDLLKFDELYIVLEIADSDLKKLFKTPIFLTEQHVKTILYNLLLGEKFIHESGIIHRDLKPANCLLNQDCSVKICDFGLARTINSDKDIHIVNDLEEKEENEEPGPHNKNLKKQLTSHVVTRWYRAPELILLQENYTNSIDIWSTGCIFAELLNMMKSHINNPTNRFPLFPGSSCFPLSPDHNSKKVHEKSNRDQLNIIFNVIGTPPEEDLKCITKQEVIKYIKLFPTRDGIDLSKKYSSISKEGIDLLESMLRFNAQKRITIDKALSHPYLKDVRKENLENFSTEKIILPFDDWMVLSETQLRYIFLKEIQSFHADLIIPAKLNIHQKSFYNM
# [5] = biological target: T4, Cdk-related protein kinase 6 (Plasmodium falciparum, UniProt O77239); assay: Final concentrations were 1.5 uM ATP, 5 mM MnCl2, and 15 ug/ml PK6 in a buffer of 100 mM Tris-HCl (pH 7.5). 50 ug/mL MBP was provided as the substrate; 10 uM staurosporine was used as a control inhibitor. Incubation time was 3 hours and 40 minutes.The catalytic activity of each kinase was considered proportional to ATP consumed, as determined from measurements of residual [ATP] with the luciferase-based reagent Kinase-Glo (Promega) following incubation. Luminescence (proportional to residual [ATP]) was measured on the plate readers FLx800 (BioTek Instruments, Winooski, VT, USA) and MicroBeta2.
# T4 sequence (O77239 whole entry): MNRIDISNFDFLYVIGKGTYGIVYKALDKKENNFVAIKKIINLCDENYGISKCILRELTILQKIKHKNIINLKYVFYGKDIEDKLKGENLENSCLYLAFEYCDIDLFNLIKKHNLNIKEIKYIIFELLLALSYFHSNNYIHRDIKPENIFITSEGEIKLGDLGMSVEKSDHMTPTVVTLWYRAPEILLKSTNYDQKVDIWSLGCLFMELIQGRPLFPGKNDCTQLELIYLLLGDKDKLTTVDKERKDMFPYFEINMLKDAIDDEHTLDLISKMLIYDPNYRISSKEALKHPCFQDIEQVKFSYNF
# Proline--tRNA ligase = biological target: T5, Proline--tRNA ligase (Plasmodium falciparum (isolate 3D7), UniProt Q8I5R7); assay: MMV: ProRS recombinant Plasmodium falciparum Prolyl-tRNA-synthetase, assay with yeast tRNA, ATP, and proline and 3 uM MMV malaria box compound, assay read out with kinase glo as % inhibition.
# T5 sequence (Q8I5R7 whole entry): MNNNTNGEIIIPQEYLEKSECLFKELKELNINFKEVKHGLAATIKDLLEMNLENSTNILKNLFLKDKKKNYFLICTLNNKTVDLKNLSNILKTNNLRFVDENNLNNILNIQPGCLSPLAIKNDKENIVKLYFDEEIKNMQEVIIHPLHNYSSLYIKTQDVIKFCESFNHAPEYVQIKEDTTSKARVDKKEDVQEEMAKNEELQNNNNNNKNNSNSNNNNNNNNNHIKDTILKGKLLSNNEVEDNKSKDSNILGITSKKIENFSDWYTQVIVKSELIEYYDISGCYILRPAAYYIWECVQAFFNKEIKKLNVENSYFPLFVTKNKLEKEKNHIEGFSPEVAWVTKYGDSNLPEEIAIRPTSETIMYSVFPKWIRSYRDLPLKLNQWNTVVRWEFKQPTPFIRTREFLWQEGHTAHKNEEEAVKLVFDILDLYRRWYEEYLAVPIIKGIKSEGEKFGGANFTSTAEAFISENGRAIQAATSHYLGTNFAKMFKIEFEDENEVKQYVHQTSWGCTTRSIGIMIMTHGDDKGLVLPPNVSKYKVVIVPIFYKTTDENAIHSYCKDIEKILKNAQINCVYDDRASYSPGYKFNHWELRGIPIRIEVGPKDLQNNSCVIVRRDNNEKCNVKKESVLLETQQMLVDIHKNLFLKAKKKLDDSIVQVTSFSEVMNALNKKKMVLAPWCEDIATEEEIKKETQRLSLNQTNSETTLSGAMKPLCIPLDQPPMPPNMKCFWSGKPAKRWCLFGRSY
# Calcium-dependent protein kinase 1, sequence (P62344 whole entry): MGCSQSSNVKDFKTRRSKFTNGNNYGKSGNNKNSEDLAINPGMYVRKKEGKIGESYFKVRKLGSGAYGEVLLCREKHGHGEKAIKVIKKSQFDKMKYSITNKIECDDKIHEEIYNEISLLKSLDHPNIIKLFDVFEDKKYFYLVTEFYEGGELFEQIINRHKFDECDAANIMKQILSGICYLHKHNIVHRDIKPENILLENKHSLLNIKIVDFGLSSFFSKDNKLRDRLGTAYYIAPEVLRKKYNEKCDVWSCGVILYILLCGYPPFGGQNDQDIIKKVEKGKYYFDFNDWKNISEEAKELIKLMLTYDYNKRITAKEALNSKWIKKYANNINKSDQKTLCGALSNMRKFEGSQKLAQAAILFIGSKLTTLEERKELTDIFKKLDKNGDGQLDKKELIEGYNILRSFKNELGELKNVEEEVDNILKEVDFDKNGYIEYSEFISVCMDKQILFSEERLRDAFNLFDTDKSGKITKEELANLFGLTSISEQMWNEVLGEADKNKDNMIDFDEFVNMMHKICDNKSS
# Lysine--tRNA ligase, sequence (Q8IDJ8 whole entry): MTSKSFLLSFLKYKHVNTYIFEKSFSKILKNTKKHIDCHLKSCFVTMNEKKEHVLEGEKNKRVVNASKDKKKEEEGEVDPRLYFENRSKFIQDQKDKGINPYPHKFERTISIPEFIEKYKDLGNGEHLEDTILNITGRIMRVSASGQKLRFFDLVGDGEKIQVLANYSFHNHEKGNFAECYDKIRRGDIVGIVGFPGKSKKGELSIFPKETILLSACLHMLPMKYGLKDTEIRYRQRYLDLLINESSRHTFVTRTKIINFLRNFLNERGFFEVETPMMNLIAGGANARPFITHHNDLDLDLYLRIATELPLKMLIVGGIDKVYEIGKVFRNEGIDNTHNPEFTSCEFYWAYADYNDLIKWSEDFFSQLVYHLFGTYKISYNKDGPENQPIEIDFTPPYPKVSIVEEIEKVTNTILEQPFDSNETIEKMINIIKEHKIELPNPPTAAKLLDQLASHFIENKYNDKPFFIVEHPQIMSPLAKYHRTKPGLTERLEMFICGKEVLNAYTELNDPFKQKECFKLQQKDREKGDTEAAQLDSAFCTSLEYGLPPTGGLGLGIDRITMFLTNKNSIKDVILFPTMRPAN
SMILES,IC50 [1],IC50 [2],IC50 [3],IC50 (Lysine--tRNA ligase),IC50 [4],IC50 [5],IC50 (Proline--tRNA ligase)
CCN(CC)CCCNc1ccnc2cc3ccccc3cc12,> 1 µM,> 1 µM,> 1 µM,> 2.5 µM,> 1 µM,> 1 µM,> 2.5 µM
O=C(Nc1ccc(-c2nc3cc4ccccc4cc3[nH]2)cc1)c1cccc(Br)c1,> 1 µM,> 1 µM,> 1 µM,> 2.5 µM,> 1 µM,> 1 µM,> 2.5 µM
COc1ccc(C(O)(CCC(C)C)C(CN2CCOCC2)c2ccc(Cl)cc2)cc1 (configuration not stated),> 1 µM,> 1 µM,> 1 µM,> 2.5 µM,> 1 µM,> 1 µM,> 2.5 µM
CCCOCc1cc(CN2CCN(c3cccc(Cl)c3)CC2)c(O)c2ncccc12,> 1 µM,> 1 µM,> 1 µM,> 2.5 µM,> 1 µM,> 1 µM,> 2.5 µM
COc1ccc(C(=O)NC(c2ccccc2Cl)c2cc(Cl)c3cccnc3c2O)cc1 (configuration not stated),> 1 µM,> 1 µM,> 1 µM,> 2.5 µM,> 1 µM,> 1 µM,> 2.5 µM
Cc1ccc(F)cc1NC(=O)c1cc(Cl)ccc1Nc1ccccc1,> 1 µM,> 1 µM,> 1 µM,> 2.5 µM,> 1 µM,> 1 µM,> 2.5 µM
CCCCCCc1cc2cc(-c3nc4ccccc4[nH]3)c(=Nc3ccccc3C)oc2cc1O,> 1 µM,> 1 µM,> 1 µM,> 2.5 µM,> 1 µM,> 1 µM,> 2.5 µM
CCCCCCC(O)(c1ccc(F)cc1)C(CN1CCOCC1)c1ccccc1 (configuration not stated),> 1 µM,> 1 µM,> 1 µM,> 2.5 µM,> 1 µM,> 1 µM,> 2.5 µM
COc1cc(OC)cc(N2C(=O)N(Cc3ccc(C(C)(C)C)cc3)c3ccccc3S2(=O)=O)c1,> 1 µM,> 1 µM,> 1 µM,> 2.5 µM,> 1 µM,> 1 µM,> 2.5 µM
CCOc1c(Br)cc(C2C(C(=O)OC)=CN(C)C=C2C(=O)OC)cc1OC,> 1 µM,> 1 µM,> 1 µM,> 2.5 µM,> 1 µM,> 1 µM,> 2.5 µM
CCOC(=O)c1c[nH]c2c(CC)cccc2c1=O,> 1 µM,> 1 µM,> 1 µM,> 2.5 µM,> 1 µM,> 1 µM,> 2.5 µM
